Assay results from the NIST ThermoML archive (doi:10.1016/j.jct.2012.08.003).
± gives the expanded uncertainty stated by the source.

Assays:
[1] = for molar entropy: 101.33 kPa
[2] = molar heat capacity at constant pressure; details: 101.33 kPa
[3] = Molar enthalpy of transition or fusion; details: Crystal

[Cs+].[F-] [cesium fluoride (CsF)]
Details | molar entropy, [1] [J/K/mol] | molar heat capacity at constant pressure, [2] [J/K/mol]
5 K, Crystal, Vacuum adiabatic calorimetry | 0.08 ± 0.02 | 0.16 ± 0.01
10 K, Crystal, Vacuum adiabatic calorimetry | 0.49 ± 0.02 | 1.3 ± 0.05
15 K, Crystal, Vacuum adiabatic calorimetry | 1.54 ± 0.03 | 4.39 ± 0.18
20 K, Crystal, Vacuum adiabatic calorimetry | 3.34 ± 0.04 | 8.57 ± 0.35
25 K, Crystal, Vacuum adiabatic calorimetry | 5.65 ± 0.05 | 12.33 ± 0.5
30 K, Crystal, Vacuum adiabatic calorimetry | 8.2 ± 0.09 | 15.77 ± 0.63
35 K, Crystal, Vacuum adiabatic calorimetry | 10.86 ± 0.09 | 18.9 ± 0.76
40 K, Crystal, Vacuum adiabatic calorimetry | 13.57 ± 0.1 | 21.75 ± 0.87
45 K, Crystal, Vacuum adiabatic calorimetry | 16.28 ± 0.11 | 24.36 ± 0.98
50 K, Crystal, Vacuum adiabatic calorimetry | 18.97 ± 0.12 | 26.72 ± 1.1
60 K, Crystal, Vacuum adiabatic calorimetry | 24.21 ± 0.13 | 30.78 ± 1.2
70 K, Crystal, Vacuum adiabatic calorimetry | 29.21 ± 0.15 | 34.08 ± 1.4
80 K, Crystal, Vacuum adiabatic calorimetry | 33.94 ± 0.16 | 36.74 ± 0.74
90 K, Crystal, Vacuum adiabatic calorimetry | 38.4 ± 0.36 | 38.87 ± 0.8
100 K, Crystal, Vacuum adiabatic calorimetry | 42.59 ± 0.36 | 40.59 ± 0.83
110 K, Crystal, Vacuum adiabatic calorimetry | 46.53 ± 0.37 | 42.2 ± 0.86
120 K, Crystal, Vacuum adiabatic calorimetry | 50.27 ± 0.38 | 43.53 ± 0.89
130 K, Crystal, Vacuum adiabatic calorimetry | 53.8 ± 0.38 | 44.7 ± 0.91
140 K, Crystal, Vacuum adiabatic calorimetry | 57.15 ± 0.39 | 45.59 ± 0.93
150 K, Crystal, Vacuum adiabatic calorimetry | 60.32 ± 0.39 | 46.3 ± 0.94
160 K, Crystal, Vacuum adiabatic calorimetry | 63.33 ± 0.4 | 46.86 ± 0.95
170 K, Crystal, Vacuum adiabatic calorimetry | 66.18 ± 0.4 | 47.31 ± 0.96
180 K, Crystal, Vacuum adiabatic calorimetry | 68.9 ± 0.4 | 47.69 ± 0.97
190 K, Crystal, Vacuum adiabatic calorimetry | 71.49 ± 0.41 | 48 ± 0.98
200 K, Crystal, Vacuum adiabatic calorimetry | 73.95 ± 0.41 | 48.28 ± 0.98
210 K, Crystal, Vacuum adiabatic calorimetry | 76.32 ± 0.41 | 48.51 ± 0.99
220 K, Crystal, Vacuum adiabatic calorimetry | 78.58 ± 0.42 | 48.73 ± 0.99
230 K, Crystal, Vacuum adiabatic calorimetry | 80.75 ± 0.42 | 48.93 ± 0.99
240 K, Crystal, Vacuum adiabatic calorimetry | 82.84 ± 0.42 | 49.12 ± 1
250 K, Crystal, Vacuum adiabatic calorimetry | 84.84 ± 0.43 | 49.3 ± 1
260 K, Crystal, Vacuum adiabatic calorimetry | 86.78 ± 0.43 | 49.48 ± 1
270 K, Crystal, Vacuum adiabatic calorimetry | 88.65 ± 0.43 | 49.66 ± 1
280 K, Crystal, Vacuum adiabatic calorimetry | 90.46 ± 0.44 | 49.84 ± 1
290 K, Crystal, Vacuum adiabatic calorimetry | 92.21 ± 0.44 | 50.03 ± 1
298.15 K, Crystal, Drop calorimetry | 93.6 ± 4.2 | 50.19 ± 1.5
298.15 K, Crystal, Vacuum adiabatic calorimetry | 93.6 ± 0.44 | 50.19 ± 1
300 K, Crystal, Drop calorimetry | 93.91 ± 4.2 | 50.23 ± 1.5
300 K, Crystal, Vacuum adiabatic calorimetry | 93.91 ± 0.44 | 50.22 ± 1
310 K, Crystal, Vacuum adiabatic calorimetry | 95.56 ± 0.44 | 50.42 ± 1
320 K, Crystal, Vacuum adiabatic calorimetry | 97.17 ± 0.45 | 50.63 ± 1
330 K, Crystal, Vacuum adiabatic calorimetry | 98.73 ± 0.45 | 50.86 ± 1
340 K, Crystal, Vacuum adiabatic calorimetry | 100.25 ± 0.45 | 51.09 ± 1
350 K, Crystal, Drop calorimetry | 101.76 ± 4.6 | 51.72 ± 1.6
350 K, Crystal, Vacuum adiabatic calorimetry | 101.74 ± 0.45 | 51.33 ± 1
400 K, Crystal, Drop calorimetry | 108.79 ± 4.9 | 53.82 ± 1.6
450 K, Crystal, Drop calorimetry | 115.27 ± 5.2 | 56.28 ± 1.7
500 K, Crystal, Drop calorimetry | 121.34 ± 5.5 | 58.95 ± 1.8
550 K, Crystal, Drop calorimetry | 127.09 ± 5.7 | 61.78 ± 1.9
600 K, Crystal, Drop calorimetry | 132.59 ± 6 | 64.69 ± 2
650 K, Crystal, Drop calorimetry | 137.88 ± 6.2 | 67.68 ± 2.1
700 K, Crystal, Drop calorimetry | 143.01 ± 6.4 | 70.72 ± 2.1
750 K, Crystal, Drop calorimetry | 148 ± 6.7 | 73.8 ± 2.2
800 K, Crystal, Drop calorimetry | 152.86 ± 6.9 | 76.9 ± 2.3
850 K, Crystal, Drop calorimetry | 157.61 ± 7.1 | 80.02 ± 2.4
900 K, Crystal, Drop calorimetry | 162.28 ± 7.3 | 83.17 ± 2.5
950 K, Crystal, Drop calorimetry | 166.86 ± 7.5 | 86.32 ± 2.6
973 K, Crystal, Drop calorimetry | 168.94 ± 7.6 | 87.78 ± 2.7
973 K, Liquid, Drop calorimetry | 191.65 ± 8.6 | 70.56 ± 2.1
1000 K, Liquid, Drop calorimetry | 193.58 ± 8.7 | 70.56 ± 2.1
1050 K, Liquid, Drop calorimetry | 197.03 ± 8.9 | 70.56 ± 2.1
1100 K, Liquid, Drop calorimetry | 200.31 ± 9 | 70.56 ± 2.1
1150 K, Liquid, Drop calorimetry | 203.44 ± 9.2 | 70.56 ± 2.1
1200 K, Liquid, Drop calorimetry | 206.45 ± 9.3 | 70.56 ± 2.1
1250 K, Liquid, Drop calorimetry | 209.33 ± 9.4 | 70.56 ± 2.1
1300 K, Liquid, Drop calorimetry | 212.1 ± 9.5 | 70.56 ± 2.1
1350 K, Liquid, Drop calorimetry | 214.76 ± 9.7 | 70.56 ± 2.1
1400 K, Liquid, Drop calorimetry | 217.32 ± 9.8 | 70.56 ± 2.1

Details | Normal melting temperature [°C]
[1], Crystal, DTA | 699.6 ± 0.5

[3]
Details | Molar enthalpy of transition or fusion [kcal/mol]
DSC | 5.28 ± 0.956
enthalpy increment functions | 5.11 ± 1.43
